Source: the supplement of paper PMC10307832

Experiments:
Assay in all cases: relative viability (nuclei count vs DMSO), 5 days (fraction); higher = more cells survive
BX 795 = compound: O=C(NCCCNc1nc(Nc2cccc(NC(=O)N3CCCC3)c2)ncc1I)c1cccs1 [BX 795]
How it was run: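 For viability, nuclei in each treated well were divided by nuclei in vehicle wells and the median across plates was taken. Lung cancer cell lines in 1536-well plates were pinned with five library-drug doses (not always all listed) spaced by √10, cultured 5 days without medium change, and imaged at 4× after Hoechst staining, with plates passing only at control CV below 25% and at least one doubling.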

BX 795 + Foretinib = compound: O=C(NCCCNc1nc(Nc2cccc(NC(=O)N3CCCC3)c2)ncc1I)c1cccs1 [BX 795] + COc1cc2c(Oc3ccc(NC(=O)C4(C(=O)Nc5ccc(F)cc5)CC4)cc3F)ccnc2cc1OCCCN1CCOCC1 [Foretinib] (partner 0.25 µM)
How it was run: (§1)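 Lung cancer cell lines, seeded in 1536-well plates, were treated the following day by pin tool with a single drug or with five library-drug doses (not always all listed) in √10 steps on top of a fixed anchor-drug dose. Cells were fixed and nuclei stained in one step after 5 days, and nuclei were counted. Relative viability is the nuclei count for treated wells divided by that for vehicle wells, reported as medians of duplicate plates.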

BX 795 + Crizotinib = compound: O=C(NCCCNc1nc(Nc2cccc(NC(=O)N3CCCC3)c2)ncc1I)c1cccs1 [BX 795] + C[C@@H](Oc1cc(-c2cnn(C3CCNCC3)c2)cnc1N)c1c(Cl)ccc(F)c1Cl [Crizotinib] (partner 1 µM)
How it was run: as §1

BX 795 + Olaparib = compound: O=C(NCCCNc1nc(Nc2cccc(NC(=O)N3CCCC3)c2)ncc1I)c1cccs1 [BX 795] + O=C(c1cc(Cc2n[nH]c(=O)c3ccccc23)ccc1F)N1CCN(C(=O)C2CC2)CC1 [Olaparib] (partner 8 µM)
How it was run: as §1

BX 795 + Linsitinib = compound: O=C(NCCCNc1nc(Nc2cccc(NC(=O)N3CCCC3)c2)ncc1I)c1cccs1 [BX 795] + C[C@]1(O)C[C@@H](c2nc(-c3ccc4ccc(-c5ccccc5)nc4c3)c3c(N)nccn32)C1 [Linsitinib] (partner 1 µM)
How it was run: as §1

BX 795 + Pictilisib = compound: O=C(NCCCNc1nc(Nc2cccc(NC(=O)N3CCCC3)c2)ncc1I)c1cccs1 [BX 795] + CS(=O)(=O)N1CCN(Cc2cc3nc(-c4cccc5[nH]ncc45)nc(N4CCOCC4)c3s2)CC1 [Pictilisib] (partner 1 µM)
How it was run: as §1

BX 795 + Bortezomib = compound: O=C(NCCCNc1nc(Nc2cccc(NC(=O)N3CCCC3)c2)ncc1I)c1cccs1 [BX 795] + CC(C)C[C@H](NC(=O)[C@H](Cc1ccccc1)NC(=O)c1cnccn1)B(O)O [Bortezomib] (partner 0.002 µM)
How it was run: as §1

BX 795 + Lapatinib = compound: O=C(NCCCNc1nc(Nc2cccc(NC(=O)N3CCCC3)c2)ncc1I)c1cccs1 [BX 795] + CS(=O)(=O)CCNCc1ccc(-c2ccc3ncnc(Nc4ccc(OCc5cccc(F)c5)c(Cl)c4)c3c2)o1 [Lapatinib] (partner 2 µM)
How it was run: as §1

BX 795 + Alpelisib = compound: O=C(NCCCNc1nc(Nc2cccc(NC(=O)N3CCCC3)c2)ncc1I)c1cccs1 [BX 795] + Cc1nc(NC(=O)N2CCC[C@H]2C(N)=O)sc1-c1ccnc(C(C)(C)C(F)(F)F)c1 [Alpelisib] (partner 2 µM)
How it was run: as §1

BX 795 + Navitoclax = compound: O=C(NCCCNc1nc(Nc2cccc(NC(=O)N3CCCC3)c2)ncc1I)c1cccs1 [BX 795] + CC1(C)CCC(c2ccc(Cl)cc2)=C(CN2CCN(c3ccc(C(=O)NS(=O)(=O)c4ccc(N[C@H](CCN5CCOCC5)CSc5ccccc5)c(S(=O)(=O)C(F)(F)F)c4)cc3)CC2)C1 [Navitoclax] (partner 0.5 µM)
How it was run: as §1

| Cell Line | relative viability (BX 795; 0.04 µM) | relative viability (BX 795; 0.1265 µM) | relative viability (BX 795; 0.4 µM) | relative viability (BX 795; 1.265 µM) | relative viability (BX 795 + Foretinib; first compound 0.04 µM) | relative viability (BX 795 + Foretinib; first compound 0.1265 µM) | relative viability (BX 795 + Foretinib; first compound 0.4 µM) | relative viability (BX 795 + Foretinib; first compound 1.265 µM) | relative viability (BX 795 + Crizotinib; first compound 0.04 µM) | relative viability (BX 795 + Crizotinib; first compound 0.1265 µM) | relative viability (BX 795 + Crizotinib; first compound 0.4 µM) | relative viability (BX 795 + Crizotinib; first compound 1.265 µM) | relative viability (BX 795 + Olaparib; first compound 0.04 µM) | relative viability (BX 795 + Olaparib; first compound 0.1265 µM) | relative viability (BX 795 + Olaparib; first compound 0.4 µM) | relative viability (BX 795 + Olaparib; first compound 1.265 µM) | relative viability (BX 795 + Linsitinib; first compound 0.04 µM) | relative viability (BX 795 + Linsitinib; first compound 0.1265 µM) | relative viability (BX 795 + Linsitinib; first compound 0.4 µM) | relative viability (BX 795 + Linsitinib; first compound 1.265 µM) | relative viability (BX 795 + Pictilisib; first compound 0.04 µM) | relative viability (BX 795 + Pictilisib; first compound 0.1265 µM) | relative viability (BX 795 + Pictilisib; first compound 0.4 µM) | relative viability (BX 795 + Pictilisib; first compound 1.265 µM) | relative viability (BX 795 + Bortezomib; first compound 0.04 µM) | relative viability (BX 795 + Bortezomib; first compound 0.1265 µM) | relative viability (BX 795 + Bortezomib; first compound 0.4 µM) | relative viability (BX 795 + Bortezomib; first compound 1.265 µM) | relative viability (BX 795 + Lapatinib; first compound 0.04 µM) | relative viability (BX 795 + Lapatinib; first compound 0.1265 µM) | relative viability (BX 795 + Lapatinib; first compound 0.4 µM) | relative viability (BX 795 + Lapatinib; first compound 1.265 µM) | relative viability (BX 795 + Alpelisib; first compound 0.04 µM) | relative viability (BX 795 + Alpelisib; first compound 0.1265 µM) | relative viability (BX 795 + Alpelisib; first compound 0.4 µM) | relative viability (BX 795 + Alpelisib; first compound 1.265 µM) | relative viability (BX 795 + Navitoclax; first compound 0.04 µM) | relative viability (BX 795 + Navitoclax; first compound 0.1265 µM) | relative viability (BX 795 + Navitoclax; first compound 0.4 µM) | relative viability (BX 795 + Navitoclax; first compound 1.265 µM) |
| --- | --- | --- | --- | --- | --- | --- | --- | --- | --- | --- | --- | --- | --- | --- | --- | --- | --- | --- | --- | --- | --- | --- | --- | --- | --- | --- | --- | --- | --- | --- | --- | --- | --- | --- | --- | --- | --- | --- | --- | --- |
| Calu-6 | 0.98 | 1 | 0.716 | 0.665 | 0.91 | 0.84 | 0.557 | 0.555 | 0.728 | 0.777 | 0.556 | 0.249 | 0.559 | 0.591 | 0.283 | 0.336 | 0.883 | 1.06 | 0.533 | 0.726 | 0.896 | 0.966 | 0.518 | 0.505 | 1.04 | 1.02 | 0.831 | 0.525 | 1.02 | 1.1 | 0.843 | 0.552 | 1.1 | 0.919 | 0.585 | 0.509 | 0.825 | 0.874 | 0.727 | 0.389 |
| EBC-1 | 1.02 | 1.01 | 0.931 | 0.543 | 0.104 | 0.0912 | 0.0982 | 0.0866 | 0.199 | 0.186 | 0.184 | 0.172 | 0.794 | 0.707 | 0.765 | 0.355 | 0.957 | 0.864 | 0.85 | 0.439 | 0.419 | 0.351 | 0.262 | 0.157 | 0.571 | 0.458 | 0.551 | 0.269 | 0.217 | 0.189 | 0.231 | 0.188 | 0.874 | 0.763 | 0.628 | 0.34 | 0.508 | 0.438 | 0.401 | 0.222 |
| NCI-H1299 | 0.972 | 1.03 | 1.05 | 0.883 | 1.13 | 1.09 | 1.16 | 0.876 | 1 | 0.933 | 1.01 | 0.674 | 1.02 | 0.985 | 0.918 | 0.637 | 0.983 | 0.968 | 0.987 | 0.767 | 0.759 | 0.747 | 0.751 | 0.399 | 1.08 | 1.01 | 1.06 | 0.938 | 0.885 | 0.977 | 1.02 | 0.798 | 1.05 | 1.09 | 1.07 | 1 | 1.05 | 0.996 | 1.06 | 0.926 |
